The test system of series [1] is E. coli W3110 a TolC::Tn10 inclusive strain. The series is described as follows: microbe, parasite or virus in culture. The conditions noted are these: Escherichia coli, read-out: W3110 IC50 (μM). It counts as cell-based.
In series [2] the test system is NRS135 gram-positive S. aureus strain expressing NorA::tetM. Nature of the series: microbe, parasite or virus in culture. The settings on record: Staphylococcus aureus, NRS135, read-out: NRS135 IC50 (μM). The format is cell-based.
Series [3] deals with PAO1. Nature of the series: microbe, parasite or virus in culture. It counts as cell-based. The conditions noted are these: Pseudomonas aeruginosa, PAO1, read-out: PAO01 IC50 (μM).
Series [4] has as its system PAO200 P. aeruginosa bacteria, the MexAB-OprM efflux pump minus strain of PAO1. The series is described as follows: microbe, parasite or virus in culture. It counts as cell-based. The conditions noted are these: Pseudomonas aeruginosa, PAO1, read-out: PAO200 IC50 (μM).
The nature of series [5]: in vitro. The conditions noted are these: human, wild-type HepG2 cells (ATCC).

These results are taken from patent US20260021071A1, “SMALL MOLECULE BROAD-SPECTRUM ANTIBIOTICS” (University of Florida Research Foundation, Incorporated, priority 2022, published 2026).

SMILES strings stand for the structures.

Take `O=[N+]([O-])c1c(Nc2ccccc2)cc(Cl)c2nonc12` [Compound 2]: the IC50 in series [1] was determined as 15.2 µM; in series [2], 2.47 µM; in series [3], 18 µM; in series [4] it was 1.3 µM. This compound had a cytotoxic concentration (CC50) in series [5] of more than 20 µM.

In series [5], `CNc1cc(Cl)c2nonc2c1[N+](=O)[O-]` [Compound 3] showed a half-maximal cytotoxic concentration (CC50) of more than 25.4 µM.

For the compound `Cc1ccc(Nc2nc3nonc3nc2NC(C)C)cc1C` [Compound 4], the IC50 in series [1] is 6.29 µM; in series [2], 26.5 µM; in series [3], not below 55 µM; in series [4] it was 24.7 µM. The compound also returned a half-maximal cytotoxic concentration (CC50) in series [5] of 11.4 µM.

For `Cc1c(Nc2nc3nonc3nc2Nc2ccc(F)cc2)c(=O)n(-c2ccccc2)n1C` [Compound 5], the IC50 in series [1] was determined as 3.77 µM; in series [2], 9.37 µM; in series [3] it was 42 µM; in series [4] it was 39.2 µM. Half-maximal cytotoxicity in series [5] (CC50) was put at 20.6 µM.

Turning to `N#Cc1cccc(NC(=O)Nc2cccc(Cl)c2)c1` [Compound 6], the IC50 came out at 5.99 µM in series [1], 19.8 µM in series [2], 55 µM in series [3] and 24.7 µM in series [4]. Further, the cytotoxic concentration (CC50) in series [5] worked out at 21.1 µM.

Regarding `N#Cc1ccc(NC(=O)Nc2cccc(Cl)c2)cc1` [Compound 7], the IC50 is 3.82 µM in series [1], 9.77 µM in series [2], not below 55 µM in series [3] and 24.7 µM in series [4]. Besides, the midpoint of cytotoxicity in series [5], the CC50, lay at 23.8 µM.

Turning to `O=C(Nc1ccc([N+](=O)[O-])cc1)NC(C(F)(F)F)C(F)(F)F` [Compound 8], the IC50 in series [1] is 8.89 µM; in series [2], 18.1 µM; in series [3], 39.5 µM; in series [4], 31.5 µM.

For the compound `O=S(=O)(Nc1nccs1)c1ccc(NC(=S)Nc2ccccc2)cc1` [Compound 9], the IC50 is 3.8 µM in series [1], 21.9 µM in series [2], not below 55 µM in series [3] and 12.3 µM in series [4]. In series [5], this compound came in with a half-maximal cytotoxic concentration (CC50) of more than 24.8 µM.

As for `O=S(=O)(Nc1nccs1)c1ccc(NC(=S)Nc2ccc(F)cc2)cc1` [Compound 10], the concentration for half-maximal inhibition (IC50) in series [1] is 4 µM; in series [2], 17.5 µM; in series [3] it was not below 55 µM; in series [4], 12.5 µM. Besides, the CC50 in series [5] is more than 24.8 µM.

Regarding `Cc1cc(F)ccc1NC(=S)Nc1ccc(S(=O)(=O)Nc2ncccn2)cc1` [Compound 11], the IC50 was 7.08 µM in series [1], not below 55 µM in series [2], not below 55 µM in series [3] and 28.2 µM in series [4]. Further, the CC50 in series [5] was more than 24.8 µM.

Take `O=C(Nc1ccc(N2CCOCC2)cc1)c1cccc(-n2cc(Nc3nnnn3C3CCCCC3)cn2)c1` [Compound 12]: the 50% inhibitory concentration (IC50) amounted to 29.1 µM in series [1], 38.7 µM in series [2], 103 µM in series [3] and 22.3 µM in series [4].

For the compound `COc1cc(NC(=O)c2cccc(-n3cc(Nc4nnnn4-c4ccccc4)cn3)c2)ccc1N1CCOCC1` [Compound 13], the IC50 in series [1] came to 8.71 µM; in series [2], 15.6 µM; in series [3], 95.7 µM; in series [4], 13.9 µM.

For the compound `CCOC(=O)c1cccc(-n2cc(Nc3nnnn3-c3ccccc3)cn2)c1` [Compound 14], the IC50 in series [1] is 14.6 µM; in series [2] it was 43.6 µM; in series [3], not below 55 µM; in series [4], 20.5 µM. In addition, the CC50 in series [5] is more than 24.8 µM.

For `O=C(CCn1cnc2ccccc2c1=O)Nc1cccc(Cl)c1` [Compound 15], the IC50 in series [1] worked out at 0.873 µM; in series [2], 47.4 µM; in series [3], 38.6 µM; in series [4], 2.7 µM. This compound also returned a cytotoxic concentration (CC50) in series [5] of more than 24.8 µM.

Turning to `c1ccc(CNc2ncnc3c2[nH]c2ccccc23)cc1` [Compound 16], the IC50 in series [1] is 15.9 µM; in series [2], not below 55 µM; in series [3], not below 55 µM; in series [4], 41.5 µM. The cytotoxic concentration (CC50) in series [5] was more than 24.8 µM.

`COc1cccc(CN2CCC3(CC2)NCCc2c3[nH]c3ccccc23)c1` [Compound 17]: the IC50 in series [1] was 47.4 µM; in series [2], not below 55 µM; in series [3], 28.2 µM; in series [4], 39 µM. The compound also registered a half-maximal cytotoxic concentration (CC50) in series [5] of more than 24.8 µM.

In general, IC50 refers to the midpoint of a concentration-inhibition curve. In general, CC50 refers to the concentration at which the toxic effect on the cells reaches its halfway point. High values mean better tolerance by the cells, low ones harm at low concentration.
